Measured values published in patent US10538532B2, “Hepatitis B antiviral agents” (ENANTA PHARMACEUTICALS, INC., priority 2016, dated 2020).

Tested on: HBV
Test: HepAD38 antiviral assay: reduction of viral product accumulation (virion DNA by qPCR, HBsAg or HBeAg by ELISA)
Type: cell-based, hepatitis B virus
Details: Hepatitis B virus, HePAD38, 120 h, HepAD38 cells, five days after compound addition; concentration reducing viral product accumulation by 50% relative to no drug controls; read-out: HepAD38 EC50
Method: Methods: HepAD38 cells are maintained as previously reported (Ladner et al, Antimicrob. Agents Chemother. 1997, […], 1715). Briefly, cells are passaged upon attaining confluency in DMEM/F12 media in the presence of 10% FBS, Penn/Strep, 250 μg/mL G418, and 1 ug/ml tetracycline. Novel compounds are screened by first washing cells three times with PBS to remove tetracycline, and plating in 96 well plates at 35,000 cells/well. Compounds dissolved in DMSO are then diluted 1:200 into wells containing cells. Five days after compound addition, material is harvested for analysis. For an extended 8 day analysis, cells are plated and treated as described above, but media and compound are refreshed on d2 and d5 post initial treatment.
On harvest day, virion DNA is obtained by lysing with Sidestep Lysis and Stabilization Buffer and then quantified via quantitative real time PCR. Commercially available ELISA kits are used to quantitate the viral proteins HBsAg (Alpco) or HbeAg (US Biological) by following the manufacturer's recommended protocol after diluting samples to match the linear range of their respective assays. Irrespective of readout, compound concentrations that reduce viral product accumulation in the cell lysates or supernatants by 50% relative to no drug controls (EC50) are reported; EC50 ranges are as follows: A<0.1 μM; B 0.1-0.4 μM; C>0.4 μM.

Row | SMILES | EC50
1 | O=C(Nc1cc(F)c(F)c(F)c1)c1ccc(Cl)c(S(=O)(=O)[C@@H]2CCC[C@H](O)C2)c1 (racemic) [Example 58] | > 400 nM
2 | O=C(Nc1cc(F)c(F)c(F)c1)c1ccc(Cl)c(S(=O)(=O)C2CCC3(CC2)OCCO3)c1 [Example 1] | 100 to 400 nM
3 | O=C1CCC(S(=O)(=O)c2cc(C(=O)Nc3cc(F)c(F)c(F)c3)ccc2Cl)CC1 [Example 2] | 100 to 400 nM
4 | C[C@H](NC(=O)OC(C)(C)C)C(=O)O[C@H]1CC[C@H](S(=O)(=O)c2cc(C(=O)Nc3cc(F)c(F)c(F)c3)ccc2Cl)CC1 [Example 5] | 100 to 400 nM
5 | C[C@H](N)C(=O)O[C@H]1CC[C@H](S(=O)(=O)c2cc(C(=O)Nc3cc(F)c(F)c(F)c3)ccc2Cl)CC1 [Example 6] | 100 to 400 nM
6 | O=C(Nc1cc(F)c(F)c(F)c1)c1ccc(Cl)c(S[C@H]2CC[C@H](O)CC2)c1 [Example 10] | 100 to 400 nM
7 | O=C(Nc1cc(F)c(F)c(F)c1)c1ccc(Cl)c(SC2CCCCC2)c1 [Example 11] | > 400 nM
8 | O=C(Nc1cc(F)c(F)c(F)c1)c1ccc(Cl)c(S(=O)(=O)C2CCCCC2)c1 [Example 12] | 100 to 400 nM
9 | CCCSc1cc(C(=O)Nc2cc(F)c(F)c(F)c2)ccc1Cl [Example 13] | > 400 nM
10 | COc1cc(C(=O)Nc2cc(F)c(F)c(F)c2)ccc1Cl [Example 14] | > 400 nM
11 | CCCS(=O)(=O)c1cc(C(=O)Nc2cc(F)c(F)c(F)c2)ccc1Cl [Example 15] | 100 to 400 nM
12 | Cc1c(NC(=O)c2ccc(Cl)c(S(=O)(=O)[C@]3(C)CC[C@H](O)CC3)c2)cc(F)c(F)c1F [Example 18] | 100 to 400 nM
13 | Cc1c(NC(=O)c2ccc(Cl)c(S(=O)(=O)[C@]3(C)CC[C@@H](O)CC3)c2)cc(F)c(F)c1F [Example 19] | > 400 nM
14 | O=C(Nc1cc(F)c(F)c(F)c1)c1ccc(Cl)c(S(=O)(=O)C2CC=CCC2)c1 (centres unmarked) [Example 20] | 100 to 400 nM
15 | O=C(Nc1cc(F)c(F)c(F)c1)c1ccc(Cl)c(S(=O)(=O)[C@H]2CC[C@H](F)CC2)c1 [Example 21] | 100 to 400 nM
16 | C[C@]1(O)CC[C@@H](S(=O)(=O)c2cc(C(=O)Nc3cc(F)c(F)c(F)c3)ccc2Cl)CC1 [Example 22] | 100 to 400 nM
17 | C[C@]1(O)CC[C@H](S(=O)(=O)c2cc(C(=O)Nc3cc(F)c(F)c(F)c3)ccc2Cl)CC1 [Example 23] | 100 to 400 nM
18 | O=C(Nc1ccnc(Cl)c1)c1ccc(Cl)c(S(=O)(=O)[C@H]2CC[C@H](O)CC2)c1 [Example 24] | > 400 nM
19 | O=C(Nc1cc(F)c(F)c(F)c1)c1ccc(Cl)c(O[C@H]2CC[C@H](O)CC2)c1 [Example 25] | > 400 nM
20 | COc1cc(NC(=O)c2ccc(Cl)c(S(=O)(=O)[C@H]3CC[C@H](O)CC3)c2)ccc1F [Example 26] | > 400 nM
21 | O=C(Nc1cc(F)c(F)c(F)c1)c1ccc(Cl)c(S(=O)(=O)Cc2ccccc2)c1 [Example 27] | > 400 nM
22 | O=C(Nc1cc(F)c(F)c(F)c1)c1ccc(Cl)c(SCC2CCCCC2)c1 [Example 28] | > 400 nM
23 | O=C1CCCC(S(=O)(=O)c2cc(C(=O)Nc3cc(F)c(F)c(F)c3)ccc2Cl)C1 (centres unmarked) [Example 29] | > 400 nM

Row | SMILES | EC50
24 | O=C1CCCC(S(=O)(=O)c2cc(C(=O)Nc3cc(F)c(F)c(F)c3)ccc2Cl)CO1 (centres unmarked) [Example 30] | > 400 nM
25 | O=C(Nc1cc(F)c(F)c(F)c1)c1ccc(Cl)c(S(=O)(=O)[C@@H]2CC[C@H](O)C2)c1 [Example 31] | 100 to 400 nM
26 | O=C(Nc1cc(F)c(F)c(F)c1)c1ccc(Cl)c(SCc2ccccn2)c1 [Example 32] | > 400 nM
27 | O=C1CC(S(=O)(=O)c2cc(C(=O)Nc3cc(F)c(F)c(F)c3)ccc2Cl)C1 [Example 33] | > 400 nM
28 | O=C(Nc1cc(F)c(F)c(F)c1)c1ccc(Cl)c(S(=O)(=O)[C@H]2C[C@@H](O)C2)c1 [Example 34] | > 400 nM
29 | O=C(Nc1cc(F)c(F)c(F)c1)c1ccc(Cl)c(SCc2cccnc2)c1 [Example 35] | > 400 nM
30 | O=C(Nc1cc(F)c(F)c(F)c1)c1ccc(Cl)c(S(=O)(=O)CC2CCCCC2)c1 [Example 36] | > 400 nM
31 | O=C(Nc1cc(F)c(F)c(F)c1)c1ccc(Cl)c(S(=O)(=O)Cc2cccc[n+]2[O-])c1 [Example 37] | > 400 nM
32 | O=C(Nc1cc(F)c(F)c(F)c1)c1ccc(Cl)c(SCc2ccncc2)c1 [Example 38] | > 400 nM
33 | C=C1CC2CCC(C1)C2Sc1cc(C(=O)Nc2cc(F)c(F)c(F)c2)ccc1Cl (centres unmarked) [Example 39] | > 400 nM
34 | COc1cc(NC(=O)c2ccc(Cl)c(S(=O)(=O)[C@H]3CC[C@H](O)CC3)c2)ccn1 [Example 40] | > 400 nM
35 | N#Cc1cc(NC(=O)c2ccc(Cl)c(S(=O)(=O)[C@H]3CC[C@H](O)CC3)c2)ccc1F [Example 41] | > 400 nM
36 | O=C(Nc1cc(F)c(F)cn1)c1ccc(Cl)c(S(=O)(=O)[C@H]2CC[C@H](O)CC2)c1 [Example 43] | > 400 nM
37 | O=C(Nc1cc(F)c(F)c(F)c1)c1ccc(Cl)c(S(=O)(=O)[C@H]2C3CCC2C[C@@H](O)C3)c1 [Example 44] | 100 to 400 nM
38 | O=C(Nc1cc(F)c(F)c(F)c1)c1ccc(Cl)c([S+]([O-])Cc2ccncc2)c1 (centres unmarked) [Example 47] | > 400 nM
39 | C=C1CC2CCC(C1)C2S(=O)(=O)c1cc(C(=O)Nc2cc(F)c(F)c(F)c2)ccc1Cl (centres unmarked) [Example 49] | 100 to 400 nM
40 | O=C(Nc1ccc(F)c(F)c1)c1ccc(Cl)c(S(=O)(=O)[C@H]2CC[C@H](O)CC2)c1 [Example 51] | 100 to 400 nM
41 | O=C(Nc1ccc(F)c(Cl)c1)c1ccc(Cl)c(S(=O)(=O)[C@H]2CC[C@H](O)CC2)c1 [Example 52] | 100 to 400 nM
42 | CS(=O)(=O)NC(=O)O[C@H]1CC[C@H](S(=O)(=O)c2cc(C(=O)Nc3cc(F)c(F)c(F)c3)ccc2Cl)CC1 [Example 53] | > 400 nM
43 | CC(C)(C)OC(=O)N[C@H]1CC[C@H](S(=O)(=O)c2cc(C(=O)Nc3cc(F)c(F)c(F)c3)ccc2Cl)CC1 [Example 54] | 100 to 400 nM
44 | CC(C)(C)OC(=O)N[C@H]1CC[C@H]([S+]([O-])c2cc(C(=O)Nc3cc(F)c(F)c(F)c3)ccc2Cl)CC1 (some centres unmarked) [Example 55] | > 400 nM
45 | N#Cc1cc(NC(=O)c2ccc(Cl)c(S(=O)(=O)[C@H]3CC[C@H](O)CC3)c2)ccn1 [Example 56] | > 400 nM
46 | O=C1CCC(S(=O)(=O)c2cc(C(=O)Nc3cc(F)c(F)c(F)c3)ccc2Cl)C1 (centres unmarked) [Example 57] | > 400 nM

Row | SMILES | EC50
47 | CC(C)(C)OC(=O)N1CCC(S(=O)(=O)c2cc(C(=O)Nc3cc(F)c(F)c(F)c3)ccc2Cl)CC1 [Example 59] | < 100 nM
48 | O=C(Nc1cc(F)c(F)c(F)c1)c1ccc(Cl)c(S[C@H]2CC[C@H](O)CC2)n1 [Example 61] | > 400 nM
49 | O=C(Nc1cc(F)c(F)c(F)c1)c1ccc(Cl)c(S(=O)(=O)[C@H]2CC[C@H](O)CC2)n1 [Example 62] | > 400 nM
50 | O=C(Nc1cc(F)c(F)c(F)c1)c1ccc(Cl)c(SC2CCC=CCC2)c1 [Example 63] | > 400 nM
51 | O=C(Nc1cc(F)c(F)c(F)c1)c1ccc(Cl)c([S+]([O-])C2CCC=CCC2)c1 (centres unmarked) [Example 64] | > 400 nM
52 | O=C(Nc1cccc(F)c1)c1ccc(Cl)c(S(=O)(=O)[C@H]2CC[C@H](O)CC2)c1 [Example 65] | > 400 nM
53 | O=C(Nc1ccc(F)cc1)c1ccc(Cl)c(S(=O)(=O)[C@H]2CC[C@H](O)CC2)c1 [Example 66] | > 400 nM
54 | O=C(Nc1cc(F)c(F)c(F)c1)c1ccc(Cl)c(SC2CCOCC2)c1 [Example 67] | > 400 nM
55 | O=C(Nc1cc(F)cc(F)c1)c1ccc(Cl)c(S(=O)(=O)[C@H]2CC[C@H](O)CC2)c1 [Example 68] | 100 to 400 nM
56 | O=C(Nc1cc(F)c(F)c(F)c1)c1ccc(Cl)c(S(=O)(=O)C2CCOCC2)c1 [Example 69] | 100 to 400 nM
57 | O=C(Nc1cc(F)c(F)c(F)c1)c1ccc(Cl)c(S(=O)(=O)C2CC[C@H](O)[C@H](O)C2)c1 (some centres unmarked) [Example 70] | 100 to 400 nM
58 | O=C(Nc1cc(F)c(F)c(F)c1)c1ccc(Cl)c(Sc2ccccc2)c1 [Example 71] | > 400 nM
59 | N[C@H]1CC[C@H](S(=O)(=O)c2cc(C(=O)Nc3cc(F)c(F)c(F)c3)ccc2Cl)CC1 [Example 72] | > 400 nM
60 | CN(C)[C@H]1CC[C@H](S(=O)(=O)c2cc(C(=O)Nc3cc(F)c(F)c(F)c3)ccc2Cl)CC1 [Example 73] | > 400 nM
61 | O=C(Nc1cc(F)c(F)c(F)c1)c1ccc(Cl)c(S(=O)(=O)C2CCNCC2)c1 [Example 74] | > 400 nM
62 | CC(C)[C@H](N)C(=O)O[C@H]1CC[C@H](S(=O)(=O)c2cc(C(=O)Nc3cc(F)c(F)c(F)c3)ccc2Cl)CC1 [Example 75] | 100 to 400 nM
63 | CC(C)[C@H](NC(=O)OC(C)(C)C)C(=O)O[C@H]1CC[C@H](S(=O)(=O)c2cc(C(=O)Nc3cc(F)c(F)c(F)c3)ccc2Cl)CC1 [Example 76] | 100 to 400 nM
64 | CCOC(=O)CS(=O)(=O)c1cc(C(=O)Nc2cc(F)c(F)c(F)c2)ccc1Cl [Example 77] | > 400 nM
65 | O=C(Nc1cc(F)c(F)c(F)c1)c1ccc(Cl)c(S[C@@H]2C[C@H](O)C[C@H](O)C2)c1 [Example 78] | > 400 nM
66 | O=C(Nc1cc(F)c(F)c(F)c1)c1ccc(Cl)c(S(=O)(=O)[C@@H]2C[C@H](O)C[C@H](O)C2)c1 [Example 79] | > 400 nM
67 | C=CCC1(S(=O)(=O)c2cc(C(=O)Nc3cc(F)c(F)c(F)c3)ccc2Cl)CCCCC1 [Example 81] | > 400 nM
68 | O=C(Nc1cc(F)c(F)c(F)c1)c1ccc(Cl)c(S(=O)(=O)c2ccccc2)c1 [Example 82] | > 400 nM
